Laboratory results from patent US20250134794A1, “BIOACTIVE WALNUT PEPTIDES AND COMPOSITIONS FOR TOPICAL TREATMENT OF SKIN” (L'OREAL, priority 2023, published 2025).
Where no end group is shown, it is not given here.

Columns and labels:
Type in all cases: cell-based
Interleukin 8 (IL-8) = test: Interleukin-8 released from Adult Dermal Human Fibroblasts (LEGENDplex Human Inflammation Panel); settings: 4 days treatment, concentration not given (100 uM or 250 uM)
Method: (§1) Adult Dermal Human Fibroblasts (Lot 2485, Passage 5, Cell Applications) were expanded and seeded into a 48-well plate at a density of 5,000 cells/well. Cells were grown in Eagle's Minimal Essential Medium (EMEM) supplemented with Fetal Bovine Serum (FBS) and Penicillin-Streptomycin. Cells attached overnight and then culture media was aspirated and replaced with media containing either 100 uM or 250 uM of Peptide I, Peptide II, or Peptide III. Cells were cultured for […] with treatment with renewal of treatment medium every other day with the exception of weekends. Media was collected at the end of the culture period. Inflammatory cytokines were quantified by running a LEGENDplex Human Inflammation Panel 1 13-plex (Catalogue #740809, Biolegend. Protein in the media supernatant was also quantified using the Pierce BCA Protein Assay Kit (Catalogue #23225, ThermoFisher). Microsoft Excel and GraphPad Prism were used for additional analysis and data presentation. The amounts of Interleukin 6 (IL-6) and Interleukin 8 (IL-8) released from the Adult Dermal Human Fibroblasts are shown below in Table 1 and graphically depicted in FIG. 1(a) (for IL-6) and FIG. 1(b) (for IL-8).

[1] = test system: Adult Dermal Human Fibroblasts; test: Autophagic vacuoles in aged fibroblasts (Autophagy Assay Kit); set-up: key: “↑” indicates and increase; “↓” indicates a decrease; “↔” indicates no change; settings: 7 days
Method: Adult Dermal Human Fibroblasts (Lot 2485, Passage 5, Cell Applications) were expanded and seeded into a 12-well glass bottom plate at a density of 10,000 cells/well. Cells were grown in Eagle's Minimal Essential Medium (EMEM) supplemented with Fetal Bovine Serum (FBS) and Penicillin-Streptomycin. Cells attached overnight and then culture media was aspirated and replaced with media containing either 100 uM or 250 uM of Peptide I, Peptide II, or Peptide III. Cells were cultured for 7 days with treatment with renewal of treatment medium every other day with the exception of weekends. On day 7, cells were stained and imaged for presence of autophagic vacuoles following the protocol in the Autophagy Assay Kit (ab139484, Abcam). The images were compared to determine whether the number of autophagic vacuoles increased, decreased, or remained unchanged. The results are reported below, in Table 4, where “↑” indicates and increase, “↓” indicates a decrease, and “↔” indicates no change.

Keratinocyte stem cells = test: Holoclone count of keratinocyte stem cells; settings: 96 hours, control 24.80 ± 6.14
Method: Keratinocyte stem cells (Lot KSC870, Passage 2, Bioalternatives) were seeded in 96-well plates and cultured in Keratinocyte-SFM supplemented with Epidermal Growth Factor and Pituitary Extract. After 4 hours, media was replaced with that containing Peptide II or Peptide III, alone or in combination. Cells were incubated for 96 hours with treatment renewal after 24 hours. After 96 hours, the medium was removed, and cells were fixed with methanol at −20C. Cells were then stained for 10 minutes with a Papanicolaou solution and imaged. The number of holoclone clones were counted. Data was analyzed and plotted using GraphPad Prism. The holocolone count relative to control (normalized) is shown below in Table 3 for different concentrations of peptide II, Peptide III, and combinations of Peptide II and Peptide III.

Interleukin 6 (IL-6) = test: Interleukin-6 released from Adult Dermal Human Fibroblasts (LEGENDplex Human Inflammation Panel); settings: 4 days treatment, concentration not given (100 uM or 250 uM)
Method: as §1

[2] = test system: epidermal growth factor (EGF); test: Epidermal growth factor generated by reconstructed human epidermis (LEGENDplex Human Growth Factor Panel); settings: 250 μM, 7 days, control = 1.00
Method: (§2) Reconstructed human epidermis (RHE) (EPISKIN/S/13, Episkin) was received and samples were prepared for use. Upon arrival, inserts containing the RHE were removed from the multi-plate and placed in a 12-well plate containing maintenance medium. Tissue serving as untreated control were placed in regular maintenance medium; treatment groups were placed in maintenance medium containing 250 uM of Peptide I, II, or III alone or in combination. Medium was aspirated and replaced every other day with the exception of weekends. RHE was cultured at air-liquid interface at 37C, 5% CO2 and saturated humidity for 7 days. Media was collected at the end of the culture period. Growth factors were quantified by running a LEGENDplex Human Growth Factor Panel (Catalogue #740809, Biolegend. Protein in the media supernatant was also quantified using the Pierce BCA Protein Assay Kit (Catalogue #741061, ThermoFisher). Microsoft Excel and GraphPad Prism were used for additional analysis and data presentation. The amounts of epidermal growth factor (EGF), hepatocyte growth factor (HGF), and transforming growth factor alpha (TGFa) generated by the RHE are shown below in Table 2 and graphically shown in FIG. 2(a) (for EGF) and FIG. 2(b) (for HGF), and FIG. 2(c) (for TGFa).

[3] = test system: transforming growth factor alpha (TGFa); test: Transforming growth factor alpha generated by reconstructed human epidermis (LEGENDplex Human Growth Factor Panel); settings: 250 μM, 7 days, control = 1.00
Method: as §2

[4] = test system: hepatocyte growth factor (HGF); test: Hepatocyte growth factor generated by reconstructed human epidermis (LEGENDplex Human Growth Factor Panel); settings: 250 μM, 7 days, control = 1.00
Method: as §2

[5] = test system: Adult Dermal Human Fibroblasts; test: Mitochondrial activity in aged fibroblasts (TMRE-Mitochondrial Membrane Potential Assay Kit); settings: 250 μM, 7 days, TMRE stain; control = 1.00
Method: Adult Dermal Human Fibroblasts (Lot 2485, Passage 5, Cell Applications) were expanded and seeded into a 12-well glass bottom plate at a density of 10,000 cells/well. Cells were grown in Eagle's Minimal Essential Medium (EMEM) supplemented with Fetal Bovine Serum (FBS) and Penicillin-Streptomycin. Cells attached overnight and then culture media was aspirated and replaced with media containing either 100 uM or 250 uM of Peptide I, Peptide II, or Peptide III. Cells were cultured for 7 days with treatment with renewal of treatment medium every other day with the exception of weekends. On day 7, cells were stained with tetramethylrhodamine ethyl ester (TMRE) and imaged for mitochondrial activity following the protocol in the TMRE-Mitochondrial Membrane Potential Assay Kit (ab113852, Abcam). The active mitochondria (mean intensity normalized to control) were determined and are shown below, in Table 5.

| Substance | Pg IL-8/μg Protein (Interleukin 8 (IL-8); first line of each peptide) | Pg IL-8/μg Protein (Interleukin 8 (IL-8); second line of each peptide) | Autophagic Vacuoles Presence (Compared to Control) ([1]; 100 μM) | Autophagic Vacuoles Presence (Compared to Control) ([1]; 250 μM) | Holoclone count (Keratinocyte stem cells; 0.2 mM) | Holoclone count (Keratinocyte stem cells; 0.4 mM) | Pg IL-6/μg Protein (Interleukin 6 (IL-6); first line of each peptide) | Pg IL-6/μg Protein (Interleukin 6 (IL-6); second line of each peptide) | EGF/μg Protein [2] | TGFa/μg Protein [3] | HGF/μg Protein [4] | Active Mitochondria (Mean Intensity Normalized to Control) [5] |
| --- | --- | --- | --- | --- | --- | --- | --- | --- | --- | --- | --- | --- |
| KVPPLLY [Peptide III] | 31.14 ± 22.26 Pg/μg Protein | 32.58 ± 4.06 Pg/μg Protein | ↑ | ↔ | 27.40 ± 6.13 | 36.50 ± 5.97 | 291.73 ± 61.03 Pg/μg Protein | 333.61 ± 38.37 Pg/μg Protein | 1.79 ± 0.28 | 1.93 ± 0.60 | 1.01 ± 0.17 | 0.97 ± 0.15 |
| TWLPLPR [Peptide I] | 22.72 ± 6.45 Pg/μg Protein | 42.71 ± 11.29 Pg/μg Protein | ↑ | ↑ | – | – | 154.52 ± 32.33 Pg/μg Protein | 126.97 ± 29.10 Pg/μg Protein | 1.58 ± 0.17 | 1.37 ± 0.23 | 0.98 ± 0.20 | 1.158 ± 0.17 |
| YVLLPSPK [Peptide II] | 20.36 ± 5.39 Pg/μg Protein | 35.68 ± 11.37 Pg/μg Protein | ↑ | ↑ | 27.60 ± 7.59 | 34.30 ± 8.85 | 265.86 ± 58.08 Pg/μg Protein | 257.53 ± 38.82 Pg/μg Protein | 1.23 ± 0.16 | 1.56 ± 0.29 | 1.28 ± 0.25 | 1.00 ± 0.19 |
